Assay results: PubChem BioAssay (NCI)
Values joined by “and” are separate entries in the source; they are usually repeats but may differ in a detail not shown here. Identical values can stand only once.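 A five-concentration, 48-hour dose response in 96-well plates underlies each endpoint, interpolated linearly between surrounding concentrations. At the GI50, growth is halved. Definition used: TGI = concentration required for complete inhibition of growth.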

Experiments:
Test in all cases: inhibition of tumour cell growth, NCI panel, 48 h
NCI-H460 lung = system: NCI-H460 lung
MDA-MB-435 = system: MDA-MB-435
COLO 205 colon = system: COLO 205 colon
NCI/ADR-RES ovarian = system: NCI/ADR-RES ovarian
SF-539 CNS = system: SF-539 CNS
A498 renal = system: A498 renal
MCF7 breast = system: MCF7 breast
HT29 colon = system: HT29 colon
IGROV1 ovarian = system: IGROV1 ovarian
SNB-75 CNS = system: SNB-75 CNS

Compound	GI50 (NCI-H460 lung)	TGI (NCI-H460 lung)	GI50 (MDA-MB-435)	TGI (MDA-MB-435)	GI50 (COLO 205 colon)	TGI (COLO 205 colon)	GI50 (NCI/ADR-RES ovarian)	TGI (NCI/ADR-RES ovarian)	GI50 (SF-539 CNS)	TGI (SF-539 CNS)	GI50 (A498 renal)	TGI (A498 renal)	GI50 (MCF7 breast)	TGI (MCF7 breast)	GI50 (HT29 colon)	TGI (HT29 colon)	GI50 (IGROV1 ovarian)	TGI (IGROV1 ovarian)	GI50 (SNB-75 CNS)	TGI (SNB-75 CNS)
O=C(O)c1ccc(CN2CCC(CN[C@@H]3C[C@H]3c3ccccc3)CC2)cc1	> 100 µM	> 100 µM	> 100 µM	> 100 µM	> 100 µM	> 100 µM	> 100 µM	> 100 µM	> 100 µM	> 100 µM	> 100 µM	> 100 µM	> 100 µM	> 100 µM	> 100 µM	> 100 µM	> 100 µM	> 100 µM	> 100 µM	> 100 µM
COC(=O)c1ccc2[nH]c(O)c(C(=Nc3ccc(N(C)C(=O)CN4CCN(C)CC4)cc3)c3ccc4c(c3)OCO4)c2c1	0.902 µM	2.65 µM	0.724 µM	2.19 µM	0.369 µM	1.74 µM	10.7 µM	34 µM	0.341 µM	1.31 µM	0.703 µM	2.18 µM	0.327 µM	1.8 µM	0.553 µM	> 27.8 µM	0.176 µM	1.52 µM	0.0752 µM	1.65 µM
C#CC1(O)C(COP(=O)(O)OCC(COP(=O)(O)OCC2OC(n3cc(F)c(=O)[nH]c3=O)CC2O)OCCCCCCCCCCCCCCCCCC)OC(n2ccc(N)nc2=O)C1O (stereo not given)	< 0.01 µM		0.566 µM	> 27.2 µM	< 0.0202 µM	1.07 µM	0.147 µM	> 40.4 µM	< 0.01 µM	3.33 µM	0.421 µM	12.1 µM	< 0.01 µM	> 32 µM	0.104 µM	> 71.9 µM	0.236 µM		0.713 µM	> 55.3 µM
CCN1C(=O)c2ccc3c4c(ccc(c24)C1=O)C(=O)N(CCCNCc1ccccc1OC)C3=O	0.437 µM	2.09 µM	0.173 µM	0.322 µM	0.201 µM	0.382 µM	1.04 µM	5.96 µM	1.16 µM	2.47 µM	0.383 µM	1.99 µM	0.205 µM	0.584 µM	0.404 µM	3.67 µM	1.28 µM	4.37 µM	1.57 µM	3.01 µM
O=C(/C=C/c1ccccc1)Nc1ncc(Cc2ccccc2Cl)s1	0.333 µM	> 100 µM	0.0972 µM	0.344 µM	0.366 µM	> 100 µM	0.325 µM	> 100 µM	0.223 µM	0.634 µM	0.176 µM	0.68 µM	0.311 µM	> 100 µM	0.331 µM	> 100 µM	0.477 µM	> 100 µM	0.219 µM	2.16 µM
CN(C)Cc1cc(C(F)(F)F)ccc1C(O)(c1ccccc1)c1ccccc1		28.1 µM		58 µM		20.8 µM		30.4 µM		32.7 µM		24.7 µM		27.4 µM		21.6 µM		30.9 µM		21.8 µM
CN(C)CCC(=O)N1C/C(=C\c2ccc(Cl)c(Cl)c2)C(=O)/C(=C/c2ccc(Cl)c(Cl)c2)C1		1.38 µM		1.6 µM		0.636 µM		1.06 µM		0.832 µM		4.6 µM		0.701 µM		0.495 µM		0.648 µM		1.3 µM
CNC(=O)OCc1nc(SSC(C)(C)C)n(C)c1COC(=O)NC		26.6 µM		16 µM		3.28 µM		20.3 µM		10.6 µM		20.4 µM		15.5 µM		13.3 µM		22.9 µM		22.4 µM
COc1ccc2c(c1)NC1=C(C(=O)OC1)C2c1cc(OC)c(OC)c(OC)c1 (stereo not given)	< 0.01 µM	> 100 µM	< 0.01 µM	< 0.0164 µM	< 0.01 µM	< 0.01 µM	< 0.01 µM	0.0277 µM	< 0.01 µM	18.6 µM	< 0.01 µM	< 0.01 µM	< 0.01 µM	> 100 µM	< 0.01 µM	> 100 µM	< 0.01 µM	> 100 µM	< 0.01 µM	40 µM
C=CC(=O)N1CCC(Oc2cc3c(Nc4ccc(Cl)c(Cl)c4F)ncnc3cc2OC)CC1	11.1 µM and 5.88 µM	33.2 µM and > 10 µM	2.23 µM and 1.8 µM	8.3 µM and 4.7 µM	4.26 µM and 3.52 µM	17.4 µM and > 10 µM	1.43 µM and 1.41 µM	10.3 µM and > 9.25 µM	1.57 µM and 1.78 µM	10 µM and 8.4 µM	0.365 µM and 0.179 µM	1.92 µM and 0.834 µM	2.05 µM and 1.42 µM	21.7 µM and > 10 µM	1.71 µM and 1.52 µM	13.7 µM and > 9.34 µM	0.0855 µM and 0.0104 µM	4.39 µM and 1.72 µM	1.07 µM and 0.48 µM	13.7 µM and 4.4 µM
CC(=O)OC1OC([C@H]2c3cccc(O)c3C(=O)c3c(O)cc(C)cc32)C(O)C(O)C1O (stereo not given in full)	0.105 µM	1.41 µM	0.0817 µM	2.72 µM	0.0421 µM		0.0383 µM	5.95 µM	0.121 µM	7.08 µM	0.105 µM	0.589 µM	0.287 µM	0.803 µM	0.116 µM	> 100 µM	0.224 µM	> 100 µM	0.0297 µM	2.74 µM
CS(=O)(=O)CCNCc1coc(-c2ccc3ncnc(Nc4ccc(OCc5ccccc5)cc4)c3c2)c1	3.86 µM	8.5 µM	4.11 µM	8.23 µM	4.78 µM	9.84 µM	9.47 µM	> 25 µM	4.25 µM	8.82 µM	1.49 µM	6.25 µM	3.77 µM	12.3 µM	3.4 µM	7.77 µM	3.7 µM	> 20.7 µM	3.92 µM	10 µM
C[C@]12CCc3sc(Nc4ccc(OC(F)(F)F)cc4)nc3C1=CC[C@@H]1[C@@H]2CC[C@]2(C)C(=O)CC[C@@H]12	3.25 µM	11.8 µM	2.72 µM	10.1 µM	2.61 µM	6.76 µM	3.93 µM	20.2 µM	1.05 µM	2.72 µM	2.09 µM	5.77 µM	1.82 µM	4.14 µM	2.39 µM	10.9 µM	3.32 µM	10.8 µM	1.88 µM	6.23 µM
COc1ccc2c(c1)OC1=C(C(=O)OC1)C2c1cc(OC)c2c(c1)OCCO2 (stereo not given)	0.0408 µM	> 100 µM	0.021 µM	0.056 µM	0.0362 µM	0.13 µM	0.0279 µM	0.0915 µM	0.048 µM	> 100 µM	0.0249 µM	0.232 µM	0.0352 µM	> 100 µM	0.0366 µM		0.128 µM	> 100 µM	0.0346 µM	> 100 µM
O=C1C=CC(=O)C2C1C1(Cl)C(Cl)=C(Cl)C2(Cl)C1(Cl)Cl (stereo not given)	3.06 µM	9.04 µM	1.69 µM	4.06 µM	11.5 µM	27.2 µM	3.75 µM	> 100 µM	6.46 µM	23.2 µM	1.46 µM	5.8 µM	8.55 µM	31.1 µM	7.54 µM	23.9 µM	2.92 µM	19.2 µM	1.13 µM	5.48 µM
CCOc1cc(C(C)(C)C)ccc1C1=N[C@H](c2ccc(Cl)cc2)[C@H](c2ccc(Cl)cc2)N1C(=O)N1CCN(CC#Cc2cccc3c2CN([C@@H]2CCC(=O)NC2=O)C3=O)CC1	2.38 µM	11.7 µM	2.75 µM	> 53.8 µM	0.472 µM		1.79 µM	> 100 µM	4.49 µM	> 100 µM	0.197 µM	6.62 µM	0.0712 µM	> 100 µM	2.41 µM	> 34.8 µM	0.165 µM	> 33.5 µM	0.1 µM	> 43.2 µM
CCN(CC)CCCC(CCl)Nc1ccnc2cc(Cl)ccc12 (stereo not given)	19.6 µM and 24.3 µM	56.4 µM and > 100 µM	14.6 µM and 6.64 µM	28.3 µM and 19.3 µM	29.5 µM and 15.1 µM	> 100 µM	25.2 µM and 23.1 µM	57.3 µM and 67.7 µM	10.7 µM and 11.4 µM	24.8 µM and 27.5 µM	24.2 µM and 22 µM	64.3 µM and 51.1 µM	23.9 µM and 27.9 µM	75.2 µM and > 87.2 µM	14.7 µM and 6.38 µM	> 100 µM	70.5 µM and 69.1 µM	> 100 µM	26.1 µM and 29.5 µM	59.2 µM and > 73.6 µM
Nc1n[nH]c2cccc(C#Cc3cccc(NC(=O)c4cccc(C(F)(F)F)c4)c3)c12	4.11 µM	15.7 µM	3.04 µM	13.7 µM	3.65 µM	15.1 µM	3.91 µM	23.2 µM	1.19 µM	3.47 µM	2.41 µM	5.57 µM	3 µM	15.8 µM	2.98 µM	12.8 µM	1.53 µM	4.31 µM	2.79 µM	18.6 µM
